Columns and labels:
Assay type in all cases: cell-based, Picochlorum
[1] = system: mutant algae (NCAR-1 and NCAR-2); test: Growth of algae culture (OD at 750 nm); settings: for growth of mutant algae as compared to wild type of the algae: about 2 ppm and about 5 ppm, FIGS. 7-9
From the text: (§1) FIG. 4 A) illustrates a plot describing comparative growth of wild type of the algae and mutant algae (NCAR-1 and NCAR-2) at different concentrations of Niclosamide; and B) depicts an image of cultures showing no growth of wild type algae (WT) and growth of mutant algae (NCAR-1 and NCAR-2) at 10 ppm of Niclosamide, respectively.

[2] = system: mutant algae (NCAR-1 and NCAR-2); test: Volumetric productivity (AFDW mg/L/day); settings: about 2 ppm and about 5 ppm; for volumetric productivity of mutant algae as compared to wild type of the algae: FIGS. 10-12
From the text: The term ‘productivity’ as used herein refers to amount of product the algae can produce under defined conditions. Productivity can be measured in grams of dry weight of algae. Alternatively, productivity can be measured in terms of the rate of production of a desirable product or product(s) such as lipid, protein, carbohydrate and/or any other biomolecule produced by the algae. The term ‘volumetric productivity’ refers to increase in biomass weight of algae/L/day.
Thus, clearly establishing that the mutant algae is resistant to salicylanilide based drug, such as Niclosamide as compared to wild type of the algae.

WT cells = test: Killing of WT cells on EMS exposure (mutagenesis); settings: 0.6 M, about 1 hours, about 1 × 10^8 /ml cells
Procedure: About 1 × 10^8 /ml WT cells were treated with 0.6 M EMS for about 1 hours. […] The alive cells were allowed to recover in dark overnight and then in low light for about a week. Upon recovering the mutant algae population was exposed to about 0.5 ppm of Niclosamide and enriched in presence of Niclosamide for several generations. As the growth rate in the presence of Niclosamide increased, the selection pressure was increased to about 1 ppm and then to about 2 ppm of Niclosamide, respectively. The mutant pool was grown in presence of about 2 ppm Niclosamide (for about 300 generations, about 1 year) till the growth rates became constant. At this stage, FACS sorting of the Niclosamide resistant mutant pool was performed to get individual Niclosamide resistant mutant algae. About 100 individual mutants were isolated and were further checked for growth in the presence of about 2 ppm Niclosamide. The list was narrowed down to about 10 stable mutants after about 2 rounds of growth screening. Finally, after about 10 rounds of repeated growth screening in the presence of about 2 ppm Niclosamide, stable mutant algae (NCAR-1 & NCAR-2) were selected, based on the stable drug resistant phenotype and consistent growth & productivity.

mutant algae NCAR-2 = test: Total intracellular ATP, bioluminescence (luciferase) assay
Procedure: (§2) Total intracellular ATP levels in wild type algae and the mutant algae were measured using molecular probes bioluminescence assay kit. The assay is based on luciferase’s requirement for ATP in producing light (emission maximum of about 560 nm at pH 7.8) from the reaction
(§3) Niclosamide was added to mid log cells (OD750 at about 0.3) of both wild type algae and mutant algae and samples (OD = 10^8 cells) were collected after about 12 hours for ATP measurement. About 1 ppm of Oligomycin A (inhibitor of ATP synthase) was used as positive control to inhibit ATP synthesis. intracellular ATP concentration in mutant algae and wild type of the algae in presence of Niclosamide was described in Table 3.

wild type algae (WT) = test: as above; settings: about 12 hours; for ATP conc. / bioluminescence reading, Average / bioluminescence reading, replicate 1 / bioluminescence reading, replicate 2: 1 ppm drug; for ATP depletion / lower ATP levels: about 1 ppm drug
Procedure: as §2, §3

mutant algae NCAR-1 = test: as above
Procedure: as §2, §3

[3] = system: mutant algae (NCAR-1 and NCAR-2); test: Photosynthetic efficiency/health; settings: about 1 ppm, about 2 ppm and about 5 ppm, FIG. 6
From the text: FIG. 6 illustrate plots describing photosynthetic efficiency/health of- A) wild type of the algae (WT); B) mutant algae (NCAR-1); and C) mutant algae (NCAR-2) at different concentrations of Niclosamide (last day is 7th Day).
The improved photosynthetic efficiency of the mutant algae explicitly implies resistance of the mutant algae to salicylanilide based drug, such as Niclosamide and that the wild type of the algae is not resistant to the salicylanilide based drug.

[4] = system: wild type of the algae (WT); test: Growth of algae culture (OD at 750 nm)
From the text: FIG. 1 A) illustrates a plot describing no growth of wild type of the algae (WT) in presence of Niclosamide (OD at 750 nm); and B) depicts an image of cultures showing no growth of wild type algae in presence of Niclosamide.
as §1

[5] = NCAR-2, 1 ppm drug, about 12 hours
[6] = NCAR-1, 1 ppm drug, about 12 hours

SMILES | growth of mutant algae as compared to wild type of the algae [1] | volumetric productivity of mutant algae as compared to wild type of the algae [2] | ATP conc. (wild type algae (WT)) | bioluminescence reading, Average (wild type algae (WT)) | bioluminescence reading, replicate 1 (wild type algae (WT)) | bioluminescence reading, replicate 2 (wild type algae (WT)) | ATP depletion / lower ATP levels (wild type algae (WT)) | further results
Cc1cc(C(C#N)c2ccc(Cl)cc2)c(Cl)cc1NC(=O)c1cc(I)cc(I)c1O (stereo not shown) [Closantel, closantel] | improved growth | improved volumetric productivity | – | – | – | – | – | –
CCOS(C)(=O)=O [EMS, ethyl methanesulfonate] | – | – | – | – | – | – | – | killing of the WT cells (WT cells): about 50%
O=C(Nc1ccc([N+](=O)[O-])cc1Cl)c1cc(Cl)ccc1O [Niclosamide, niclosamide] | improved growth | improved volumetric productivity | ~ 28.80 nM | 174.5 | 204 | 145 | about 90% | ATP conc. (mutant algae NCAR-2; [5]): 138.55 nM; bioluminescence reading, Average (mutant algae NCAR-2; [5]): 839.5; bioluminescence reading, replicate 1 (mutant algae NCAR-2; [5]): 890; bioluminescence reading, replicate 2 (mutant algae NCAR-2; [5]): 789; ATP depletion (mutant algae NCAR-2; NCAR-2, after about 12 hours of drug addition): about 50%; ATP conc. (mutant algae NCAR-1; [6]): 125.68 nM; bioluminescence reading, Average (mutant algae NCAR-1; [6]): 761.5; bioluminescence reading, replicate 1 (mutant algae NCAR-1; [6]): 835; bioluminescence reading, replicate 2 (mutant algae NCAR-1; [6]): 688; ATP depletion (mutant algae NCAR-1; NCAR-1, after about 12 hours of drug addition): about 50%; growth of mutant algae ([1]; 10 ppm, FIG. 4B): evident growth; photosynthetic efficiency/health of mutant algae as compared to wild type of the algae [3]: improved photosynthetic efficiency/health; growth of wild type of the algae ([4]; 10 ppm, FIG. 4B): no growth; growth of wild type of the algae (OD at 750 nm) ([4]; in presence of drug, FIG. 1): no growth; volumetric productivity of mutant algae ([2]; about 1 ppm, FIG. 5): equal to or greater than the volumetric productivity of the wild type of the algae in absence of Niclosamide
CC[C@H]1/C=C/C=C/C[C@@H](C)[C@H](O)[C@@](C)(O)C(=O)[C@@H](C)[C@H](O)[C@@H](C)C(=O)[C@@H](C)[C@H](O)[C@@H](C)/C=C/C(=O)O[C@@H]2[C@H](C)[C@H](CC1)O[C@]1(CC[C@H](C)[C@H](C[C@@H](C)O)O1)[C@H]2C [Oligomycin, Oligomycin A] | – | – | 178.49 nM | 1081.5 | 1181 | 982 | about 40% | –
O=C(Nc1cc(Cl)cc(Cl)c1O)c1c(O)c(Cl)cc(Cl)c1Cl [Oxyclozanide, oxyclozanide] | improved growth | improved volumetric productivity | – | – | – | – | – | –
O=C(Nc1ccc(Oc2ccc(Cl)cc2)c(Cl)c1)c1cc(I)cc(I)c1O [Rafoxanide, rafoxanide] | improved growth | improved volumetric productivity | – | – | – | – | – | –
